Laboratory results: publication PMC4000071 (Journal of Toxicologic Pathology, 2014)
Where two headings read alike, the source gives them in different places.

Key:
[1] = test system: phospholipidosis (PLD); test: in vitro PLD screen; format: cell-based; conditions: read-out: EC50 (phospholipogenic, in vitro)
[2] = test system: dogs; conditions: cited from earlier work
[3] = test system: rats; conditions: cited from earlier work

Q: For `CCN(CC)CCCC(C)Nc1ccnc2cc(Cl)ccc12` (stereo not drawn) [chloroquine], which EC50 [1] is on record?
A: < 20 µM

Q: For `CC[C@@H]([C@H](C)O)n1ncn(-c2ccc(N3CCN(c4ccc(OC[C@@H]5CO[C@@](Cn6cncn6)(c6ccc(F)cc6F)C5)cc4)CC3)cc2)c1=O` [posaconazole], which PLD ([2]; chronic administration) is on record?
A: caused PLD in DRG and medulla oblongata neurons in the brain

Q: What about the “neuronal degeneration or necrosis” value ([2]; chronic administration) of the same compound?
A: no evidence of neuronal degeneration or necrosis

Q: For `CN(C)CCCN1c2ccccc2CCc2ccccc21` [imipramine], which “PLD in nervous tissues” value [3] is on record?
A: caused PLD in retina and DRG

Q: Which “PLD in nervous tissues” value [3] does the source give for `CNCCC(Oc1ccc(C(F)(F)F)cc1)c1ccccc1` (stereo not drawn) [fluoxetine] here?
A: caused PLD in retinas

Q: What about the “PLD-like vacuolation in nerve cells” value [3] of the same compound?
A: PLD-like vacuolation in nerve cells in the thalamus, cerebellum, spinal cord and ganglion

Q: And the “neuronal degeneration or neurological findings” value ([2]; after 1 year of dosing)?
A: no neuronal degeneration or neurological findings were observed

Q: Which “corneal microdeposits (incidence)” value ([2]; after 6 weeks) does the source give for `CCCCc1oc2ccccc2c1C(=O)c1cc(I)c(OCCN(CC)CC)c(I)c1` [amiodarone] here?
A: 1 of 6

Q: What about the “alteration in the retina or optic nerve” value ([2]; after 11 weeks of dosing) of the same compound?
A: did not cause any alteration in the retina or optic nerve

Q: Which “PLD in nervous tissues” value [3] does the source give for `CN(C)CCCC1(c2ccc(F)cc2)OCc2cc(C#N)ccc21` (stereo not drawn) [citalopram] here?
A: caused PLD in 1 sympathetic ganglion, none or very weak PLD in retinal and trigeminal ganglia, and hypothalamic neurosecretory perikarya

Q: What about the PLD [2] of the same compound?
A: did not cause PLD

Q: Which EC50 [1] does the source give for `C1CCC(C(CC2CCCCN2)C2CCCCC2)CC1` (stereo not drawn) [perhexiline] here?
A: < 20 µM
